From patent publication US20250034139A1, “AMINE COMPOUNDS HAVING ANTI-INFLAMMATORY, ANTIFUNGAL, ANTIPARASITIC, AND ANTICANCER ACTIVITY” (PHARMA CINQ, LLC, priority 2013, published 2025)
Marks after values point to notes of the source that are not given here.

What was measured:
[1] = system: EAE induced by PLP139-151; assay: Example G: Experimental Autoimmune Encephalitis (EAE) mouse model of multiple sclerosis; type: in vivo; conditions: for EAE Score on Day 46: 60 μmol/kg by oral gavage from Day 14, score 0-5; for EAE Score on Day 14 (Before Treatment): baseline, score 0-5
[2] = system: 4T1 murine breast cancer cells; assay: Example S: in vitro anticancer screen, 4T1 cells, Wst1; type: cell-based, mouse; conditions: Mus musculus, 4T1, 18 h, 18 hr, Wst1; for viability at 1 µM: read-out: 4T1 1 μM, percent of cancer cell survival relative to vehicle treated cells; for viability at 5 µM: read-out: 4T1 5 μM, percent of cancer cell survival relative to vehicle treated cells
Procedure, shortened: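 Read-out is Wst1 absorbance (450 nm, reference 630 nm) after roughly 2 hr dye incubation, giving percent cell survival versus vehicle. Before that, compounds at 1 μM or 5 μM were applied for 18 hr to 4T1 cells plated at 1×10^4 per well.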

[3] = system: 4T1 mouse mammary breast cancer cells; assay: Example O: syngeneic 4T1 breast cancer growth in Balb/C mice; type: in vivo; conditions: for Final Tumor Volume / Δ BW % / Final Body Weight / Initial Body Weight: 4T1 in female Balb/C mice; for Final Tumor Volume: 120 μmol/kg/day oral gavage, day 2 to day 30; for Δ BW % / Final Body Weight / Initial Body Weight: 120 μmol/kg/day oral; for Δ BW %: final vs initial body weight; for Final Body Weight: in g (unit assumed); for Initial Body Weight: initial (baseline)
Description: Cancer models in mice generally either involve syngeneic murine tumors in immunocompetent mice or xenografts of human tumors in immunocompromised mice. […] Mice received test compounds by oral gavage in 1% hydroxypropylmethylcellulose from day 2 until day 30. Tumor growth was assessed by caliper measurements twice per week and tumor weight after necropsy, and body weight was also monitored. Treatment groups were: • 1. […] HPMC) • 2. CI (120 μmol/kg/day) • 3. BA (120 μmol/kg/day) • 4. CP (120 μmol/kg/day) • 5. CQ (120 μmol/kg/day) • 6. AA (120 μmol/kg/day) • 7. AC (120 μmol/kg/day)

[4] = system: PC-3 prostate cancer cells; assay: Example T: sensitisation of PC-3 cells to doxorubicin, oxaliplatin, paclitaxel or vincristine, Wst1; type: cell-based, human; conditions: PC-3 cells, 72 hours; for viability at 2.5 µM: compound 2.5 μM alone; for Doxorubicin 3.5 μM: percent cell survival / Oxaliplatin 100 μM: percent cell survival / Paclitaxel 50 μM: percent cell survival / Vincristine 100 nM: percent cell survival: chemotherapy agent alone normalized to 100%
[5] = system: PC3 human prostate cancer cells; assay: Example S: in vitro anticancer screen, PC-3 cells, Wst1; type: cell-based; conditions: Homo sapiens, PC-3, approximately 20 hours, Wst1, read-out: PC-3, percent of cancer cell survival relative to vehicle treated cells
Procedure, shortened: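 Values give percent survival relative to vehicle, read by Wst1 absorbance (450/630 nm) after 2 h dye incubation, in triplicate. Cells were seeded at 2×10^4/well and treated about 20 h with compound at 0.4, 0.5 or 2.5 μM, depending on compound.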

[6] = system: THP-1 cells; assay: Example D: LPS-triggered THP-1 cell death assay, acute/5-hour and chronic/48-hour; type: cell-based, Human; conditions: 10 ng/ml LPS, 0.1 μM test compound, 48 hours
Description: Compounds of the invention were tested at 0.1 μM versus AC in the LPS-triggered THP-1 cell death assay. Both acute/5-hour and chronic/48-hour phases of cell death were assessed. Compounds were screened in batches with DMSO as the negative control and AC as the high activity control.

[7] = system: HCT-116 colon adenocarcinoma cells; assay: Example Q: HCT-116 liver metastases of human colorectal cancer in nude mice; type: in vivo; conditions: 240 μmol/kg/day oral, 28 days
From the text: A major cause of morbidity and mortality in patients with colorectal cancer is metastasis of the tumor into the liver; colorectal cancer can often be successfully resected from the primary site, but metastases to the liver are much less accessible to surgical treatment. A mouse model of colorectal cancer metastasis to the liver has been established, using HCT-116 colon adenocarcinoma cells injected into the spleen of athymic (nude) mice. The HCT-116 cancer cells spontaneously spread from the spleen into the liver via the circulation, and they form tumors in the liver (Ishizu, K., Sunose, N., Yamazaki, K., Tsuruo, T., Sadahiro, S., Makuuchi, H., and Yamori, T. Development and Characterization of a Model of Liver Metastasis Using Human Colon Cancer HCT-116. Biol. Pharm. Bull. 2007, 30(9):1779-1783).
Mice (female Hsd:athymic nude-Foxn1^nu) were anesthetized with xylazine/ketamine intraperitoneal injection, followed by incision approximately 10 mm on the left subcostal region (area disinfected with ethanol) to expose the peritoneum. The peritoneum was opened for about 8 mm near the spleen, and 2.5×10^6 cells in 50 μL PBS were injected into the spleen using a 30G needle. The spleen was repositioned, and the surgical area was closed using sutures and clips.
The day after receiving cells, mice were randomized into groups of five based upon body weight to provide groups with approximately equivalent mean body weight. Mice received a single, daily oral dose of test article or vehicle (1% hydroxypropylmethylcellulose) beginning 48 hours following cell injection into the spleen.
At study termination 28 days after HCT-116 cell injection, body weights were recorded, and spleens and livers were removed, weighed and fixed in 10% formalin. Livers were sectioned and stained; the relative areas of normal and tumor tissue were quantified in histology sections with quantitative planimetry software.

[8] = system: Cryptococcus neoformans (serotype D); assay: Example K: Cryptococcus neoformans (serotype D) growth inhibition; type: cell-based
[9] = system: Vit-D3 activated THP-1 cells; assay: Example B: Acridine Orange (A.O.) uptake, lysosomal acidification and integrity; type: cell-based, Human; conditions: 5 hours
Description: In this experiment, cell viability was monitored and uptake and accumulation of acridine orange, a lysosomotropic fluorescent dye, was used to assess lysosomal acidification and integrity. JC-1 dye was used to measure effects of test compounds on mitochondrial membrane potential (MMP); reduction of MMP is a feature of apoptotic cell death. • 1. […] The tubes were washed twice in DPBS, resuspended in 500 μl DPBS and acquired on the FACSCalibur.

[10] = system: S. cerevisiae; assay: Example I: Saccharomyces cerevisiae growth inhibition (OD 600 nm); type: cell-based; conditions: tested 4 to 50 μM
[11] = Homo sapiens, Wst1, vehicle = 100, read-out: No Chemo: percent cell survival
[12] = compound 2.5 μM + doxorubicin 3.5 μM
[13] = compound 2.5 μM + oxaliplatin 100 μM
[14] = compound 2.5 μM + paclitaxel 50 μM
[15] = compound 2.5 μM + vincristine 100 nM
[16] = HCT-116 liver metastases, nude mice

SMILES | EAE Score on Day 46 [1] | EAE Score on Day 14 (Before Treatment) [1] | viability at 1 µM [2] | viability at 5 µM [2] | Final Tumor Volume [3] | Δ BW % [3] | Final Body Weight [3] | Initial Body Weight [3] | viability at 2.5 µM [4, 11] | Doxorubicin 3.5 μM: percent cell survival [4, 12] | Oxaliplatin 100 μM: percent cell survival [4, 13] | Paclitaxel 50 μM: percent cell survival [4, 14] | Vincristine 100 nM: percent cell survival [4, 15] | viability at 2.5 µM [5] | Viable cell percent change, Chronic/48-hour, Mean [6] | other results
CCCCCCOc1ccccc1OCCNc1ccnc2ccccc12 [CP, N-{2-[2-(Hexyloxy)phenoxy]ethyl}quinolin-4-amine] | 1.86 ± 0.34 | 0.86 ± 0.14 | 82.6% | 38% | 352 ± 114 mm^3 | −0.0% | 24.1 ± 1.3 | 24.1 ± 0.9 g | 35.6% | 72.4% | 76.5% | 74.5% | 48.2% | 35.6% | 49.81% | –
CCCCCCOc1ccccc1OCCCNc1ccnc2ccccc12 [CQ, N-{3-[2-(Hexyloxy)phenoxy]propyl}quinolin-4-amine] | – | – | 71.9% | 57.9% | 140 ± 60 mm^3 | −2.0% | 24.4 ± 0.9 | 24.9 ± 0.6 g | 95.8% | 86.5% | 93.8% | 34.8% | 47.1% | 95.8% | – | tumor growth versus vehicle-treated mice, in words ([3]; daily oral administration, 120 μM/kg/day as printed): most active of the compounds tested in this experiment; excess of the Vehicle group's liver weight/body weight ratio over the treated group [7]: 12%; area of liver invaded by metastatic cancer cells, in words ([7]; histology planimetry): markedly reduced the area of liver invaded by metastatic cancer cells; Final Body Weight Grams [7, 16]: 26.2 ± 0.9 NS Grams; Liver Weight % of Body Weight [7, 16]: 5.3 ± 0.1%; Tumor Area % of Vehicle Group [7, 16]: 0.15% *; Tumor Area % of Total Liver ([7]; HCT-116 liver metastases, nude mice, histology planimetry): 0.02 ± 0.01%
CCCCCCOc1ccc(OCCCCNc2ccnc3ccccc23)cc1 [CZ, N-{4-[4-(Hexyloxy)phenoxy]butyl}quinolin-4-amine] | 2.29 ± 0.20 | 1.00 ± 0.00 | 50.6% | 28.3% | – | – | – | – | – | – | – | – | – | – | 53.70% | viability at 0.4 µM ([4]; Homo sapiens, compound 0.4 μM alone, Wst1, vehicle = 100, read-out: No Chemo: percent cell survival): 96.7%; Doxorubicin 3.5 μM: percent cell survival ([4]; compound 0.4 μM + doxorubicin 3.5 μM): 89.1%; Oxaliplatin 100 μM: percent cell survival ([4]; compound 0.4 μM + oxaliplatin 100 μM): 91.1%; Paclitaxel 50 μM: percent cell survival ([4]; compound 0.4 μM + paclitaxel 50 μM): 101.9%; Vincristine 100 nM: percent cell survival ([4]; compound 0.4 μM + vincristine 100 nM): 90.3%; viability at 0.4 µM ([5]; 0.4 μM): 96.7%
CCN(CC)CCCC(C)Nc1ccnc2cc(Cl)ccc12 (stereo not drawn) [Chloroquine, Chloroquine diphosphate, reference compound] | – | – | – | – | – | – | – | – | – | – | – | – | – | – | – | IC50 ([8]; Cryptococcus deneoformans): > 100 µM; growth inhibition of Cryptococcus neoformans (maximum) ([8]; chloroquine at a concentration of 100 micromolar): less than 50%; inhibition at 100 µM ([8]; read-out: growth inhibition of Cryptococcus neoformans (maximum), chloroquine at a concentration of 100 micromolar): 40%; A.O. FL-3 fluorescence (MFI) percent change from DMSO no LPS, Mean ± SE ([9]; 50.0 μM C.Q., 1 ng/ml LPS): −72.28 ± 0.78%; A.O. FL-3 fluorescence (MFI) percent change from DMSO no LPS, Mean ± SE ([9]; 100.0 μM C.Q., 1 ng/ml LPS): −88.28 ± 1.60%; A.O. FL-3 fluorescence (MFI) percent change from DMSO no LPS, Mean ± SE ([9]; 100.0 μM C.Q., No LPS): −91.25 ± 0.60%; inactive compound (inhibition of yeast growth, in words) [10]: did not show any inhibition of yeast growth up to 50 uM
CN(C(=O)c1c(O)c2ccccc2n(C)c1=O)c1ccccc1 [Linomide, reference compound] | 2.29 ± 0.48 | 0.93 ± 0.19 | – | – | – | – | – | – | – | – | – | – | – | – | – | –
